According to patent publication US10670605B2, “Cysteine reactive probes and uses thereof” (The Scripps Research Institute, priority 2015, dated 2020):
One block for each molecule: values may come before it.

How the values were obtained:
Assay in all cases: Competitive isoTOP-ABPP, cell lysates
Type in all cases: binding
[1] = target: T1, UBE2S C118 (Q16763) (Homo sapiens, UniProt Q16763); conditions: for isoTOP-ABPP ratio, Q16763_C118: 500 μM, invitro
T1 sequence (Q16763 1-222): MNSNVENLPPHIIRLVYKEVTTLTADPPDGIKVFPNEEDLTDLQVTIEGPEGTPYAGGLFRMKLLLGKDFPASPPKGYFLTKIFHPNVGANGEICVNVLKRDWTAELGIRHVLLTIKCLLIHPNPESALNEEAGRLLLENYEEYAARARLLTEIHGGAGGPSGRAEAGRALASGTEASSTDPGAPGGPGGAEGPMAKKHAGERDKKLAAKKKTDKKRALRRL

[2] = target: GNB2L1 C182 (P63244) (Homo sapiens, UniProt P63244); conditions: for isoTOP-ABPP ratio, P63244_C182: 500 μM, invitro
[3] = target: T2, UCHL3 C95 (P15374) (Homo sapiens, UniProt P15374); conditions: for isoTOP-ABPP ratio, P15374_C95: 500 μM, invitro
T2 sequence (P15374 1-230): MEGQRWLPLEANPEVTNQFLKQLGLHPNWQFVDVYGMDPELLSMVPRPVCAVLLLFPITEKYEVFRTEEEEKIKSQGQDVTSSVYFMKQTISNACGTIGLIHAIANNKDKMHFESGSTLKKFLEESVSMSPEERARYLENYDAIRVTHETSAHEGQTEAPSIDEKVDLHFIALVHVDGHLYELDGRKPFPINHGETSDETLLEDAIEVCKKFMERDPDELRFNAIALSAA

[4] = target: T3, USP22 C171 (Q9UPT9) (Homo sapiens, UniProt Q9UPT9); conditions: for isoTOP-ABPP ratio, Q9UPT9_C171: 500 μM, invitro, ramos
T3 sequence (Q9UPT9 1-525): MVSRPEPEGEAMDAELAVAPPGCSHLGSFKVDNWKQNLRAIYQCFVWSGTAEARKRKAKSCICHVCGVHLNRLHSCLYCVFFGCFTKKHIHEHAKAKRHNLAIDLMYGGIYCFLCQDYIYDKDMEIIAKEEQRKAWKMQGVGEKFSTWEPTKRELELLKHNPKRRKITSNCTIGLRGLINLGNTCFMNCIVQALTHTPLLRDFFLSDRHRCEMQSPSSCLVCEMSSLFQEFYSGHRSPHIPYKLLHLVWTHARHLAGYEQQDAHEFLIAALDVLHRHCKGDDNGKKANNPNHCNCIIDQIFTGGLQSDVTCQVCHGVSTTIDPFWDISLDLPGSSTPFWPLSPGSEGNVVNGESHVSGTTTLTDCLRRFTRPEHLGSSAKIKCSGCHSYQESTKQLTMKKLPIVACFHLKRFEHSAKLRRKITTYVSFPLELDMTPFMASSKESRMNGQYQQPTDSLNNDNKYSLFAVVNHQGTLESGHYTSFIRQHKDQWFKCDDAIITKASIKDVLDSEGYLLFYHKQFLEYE

[5] = target: SAMHD1 C522 (Q9Y3Z3) (Homo sapiens, UniProt Q9Y3Z3); conditions: for isoTOP-ABPP ratio, Q9Y3Z3_C522: 500 μM, invitro, 231
[6] = target: ZNF217 C286 (O75362) (Homo sapiens, UniProt O75362); conditions: for isoTOP-ABPP ratio O75362_C286: 500 μM, invitro
[7] = target: IDH1 C269 (O75874) (Homo sapiens, UniProt O75874); conditions: for isoTOP-ABPP ratio, O75874_C269: 500 μM, invitro, 231
[8] = target: GSTP1 C48 (P09211) (Homo sapiens, UniProt P09211); conditions: for isoTOP-ABPP ratio, P09211_C48: 500 μM, invitro
[9] = target: T4, AIP C122 (O00170) (Homo sapiens, UniProt O00170); conditions: for isoTOP-ABPP ratio, O00170_C122: 500 μM, invitro, ramos
T4 sequence (O00170 1-330): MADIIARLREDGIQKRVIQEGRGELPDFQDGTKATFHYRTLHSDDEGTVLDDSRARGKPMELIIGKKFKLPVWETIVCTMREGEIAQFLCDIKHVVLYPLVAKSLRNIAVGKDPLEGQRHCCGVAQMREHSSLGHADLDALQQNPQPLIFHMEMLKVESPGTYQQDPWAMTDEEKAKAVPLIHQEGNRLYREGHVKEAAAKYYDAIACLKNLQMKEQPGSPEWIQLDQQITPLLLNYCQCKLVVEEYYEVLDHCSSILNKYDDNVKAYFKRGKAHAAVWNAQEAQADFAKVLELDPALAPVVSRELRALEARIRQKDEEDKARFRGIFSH

Sequence of GSTP1 C48 (P09211) (P09211 whole entry): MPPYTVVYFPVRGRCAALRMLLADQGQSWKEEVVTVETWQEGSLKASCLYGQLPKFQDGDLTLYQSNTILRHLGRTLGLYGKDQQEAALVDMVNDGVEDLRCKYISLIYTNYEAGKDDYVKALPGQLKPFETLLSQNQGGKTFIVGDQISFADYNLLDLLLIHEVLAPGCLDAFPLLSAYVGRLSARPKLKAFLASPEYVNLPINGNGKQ
Sequence of ZNF217 C286 (O75362) (O75362 whole entry): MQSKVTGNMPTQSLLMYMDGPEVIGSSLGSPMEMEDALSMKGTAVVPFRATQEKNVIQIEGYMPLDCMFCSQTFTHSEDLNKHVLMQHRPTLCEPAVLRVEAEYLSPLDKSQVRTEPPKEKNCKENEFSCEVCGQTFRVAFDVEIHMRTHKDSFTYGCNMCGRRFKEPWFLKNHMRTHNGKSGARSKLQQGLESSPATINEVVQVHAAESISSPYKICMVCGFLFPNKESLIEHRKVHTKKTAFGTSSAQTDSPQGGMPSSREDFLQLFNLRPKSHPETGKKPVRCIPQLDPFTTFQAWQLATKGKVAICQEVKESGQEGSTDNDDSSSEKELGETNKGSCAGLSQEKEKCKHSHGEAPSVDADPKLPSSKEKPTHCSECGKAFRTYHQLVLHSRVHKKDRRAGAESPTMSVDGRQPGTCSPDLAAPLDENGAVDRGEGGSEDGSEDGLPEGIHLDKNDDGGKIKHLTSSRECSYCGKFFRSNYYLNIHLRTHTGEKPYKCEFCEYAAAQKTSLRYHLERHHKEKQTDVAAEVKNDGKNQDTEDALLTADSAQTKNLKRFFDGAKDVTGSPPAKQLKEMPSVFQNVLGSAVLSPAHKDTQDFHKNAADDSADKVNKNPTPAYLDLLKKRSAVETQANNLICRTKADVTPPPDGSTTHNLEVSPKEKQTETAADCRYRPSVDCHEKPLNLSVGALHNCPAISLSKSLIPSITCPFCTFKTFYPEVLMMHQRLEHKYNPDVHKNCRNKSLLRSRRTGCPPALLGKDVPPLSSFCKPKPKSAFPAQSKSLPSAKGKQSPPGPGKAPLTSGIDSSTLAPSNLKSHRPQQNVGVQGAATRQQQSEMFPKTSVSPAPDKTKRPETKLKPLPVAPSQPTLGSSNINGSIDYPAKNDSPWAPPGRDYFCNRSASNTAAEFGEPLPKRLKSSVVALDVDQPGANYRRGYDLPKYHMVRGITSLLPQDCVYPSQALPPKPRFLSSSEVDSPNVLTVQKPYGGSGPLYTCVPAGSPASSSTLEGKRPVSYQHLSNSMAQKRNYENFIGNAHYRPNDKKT
Sequence of SAMHD1 C522 (Q9Y3Z3) (Q9Y3Z3 whole entry): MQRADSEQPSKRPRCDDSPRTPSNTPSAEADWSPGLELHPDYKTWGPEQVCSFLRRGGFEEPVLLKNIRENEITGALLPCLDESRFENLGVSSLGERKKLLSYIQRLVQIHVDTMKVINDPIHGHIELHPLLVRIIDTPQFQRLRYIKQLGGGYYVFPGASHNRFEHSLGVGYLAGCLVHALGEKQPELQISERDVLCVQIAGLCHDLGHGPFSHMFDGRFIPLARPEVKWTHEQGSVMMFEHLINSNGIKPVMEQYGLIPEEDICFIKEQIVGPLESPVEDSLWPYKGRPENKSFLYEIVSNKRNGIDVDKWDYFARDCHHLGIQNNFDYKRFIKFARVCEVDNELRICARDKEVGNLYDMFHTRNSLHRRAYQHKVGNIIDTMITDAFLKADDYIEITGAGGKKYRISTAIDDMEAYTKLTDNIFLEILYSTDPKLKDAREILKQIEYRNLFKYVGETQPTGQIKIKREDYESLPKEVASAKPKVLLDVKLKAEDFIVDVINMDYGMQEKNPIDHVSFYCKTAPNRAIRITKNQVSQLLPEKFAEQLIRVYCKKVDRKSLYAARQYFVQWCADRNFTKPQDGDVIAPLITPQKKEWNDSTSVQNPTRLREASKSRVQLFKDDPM
Sequence of IDH1 C269 (O75874) (O75874 whole entry): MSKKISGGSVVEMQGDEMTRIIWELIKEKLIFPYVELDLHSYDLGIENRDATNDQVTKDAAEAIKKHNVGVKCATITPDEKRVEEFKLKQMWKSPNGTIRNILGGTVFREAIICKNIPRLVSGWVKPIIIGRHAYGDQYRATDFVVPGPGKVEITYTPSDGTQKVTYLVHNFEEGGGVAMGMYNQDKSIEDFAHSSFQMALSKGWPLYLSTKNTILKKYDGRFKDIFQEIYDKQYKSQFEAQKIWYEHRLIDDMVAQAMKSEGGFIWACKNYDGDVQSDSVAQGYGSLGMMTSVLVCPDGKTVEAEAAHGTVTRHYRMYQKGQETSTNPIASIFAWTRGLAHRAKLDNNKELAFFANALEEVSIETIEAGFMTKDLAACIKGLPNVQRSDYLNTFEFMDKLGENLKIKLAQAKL

isoTOP-ABPP ratio, Q16763_C118 [1]; 231: 1.7
isoTOP-ABPP ratio, P63244_C182 [2]; 231: 1.1
isoTOP-ABPP ratio, P63244_C182 ([2]; ramos): 1.1
isoTOP-ABPP ratio, P15374_C95 [3]; 231: 2.0
isoTOP-ABPP ratio, Q9UPT9_C171 [4]: 3.8
isoTOP-ABPP ratio, Q9Y3Z3_C522 [5]: 1.8
isoTOP-ABPP ratio O75362_C286 [6]; 231: 1.1
isoTOP-ABPP ratio, O75874_C269 [7]: 20.0
isoTOP-ABPP ratio, P09211_C48 [8]; 231: 1.4
isoTOP-ABPP ratio, P09211_C48 ([8]; ramos): 0.8
isoTOP-ABPP ratio, O00170_C122 [9]: 1.7
SMILES: O=C(CCl)N1CCN(S(=O)(=O)c2ccccc2F)CC1 [compound 10]

isoTOP-ABPP ratio, Q16763_C118 ([1]; ramos): 0.7
isoTOP-ABPP ratio, P63244_C182 [2]; 231: 1.4
isoTOP-ABPP ratio, P63244_C182 ([2]; ramos): 0.8
isoTOP-ABPP ratio, P15374_C95 ([3]; ramos): 0.8
isoTOP-ABPP ratio, Q9UPT9_C171 [4]: 0.8
isoTOP-ABPP ratio, Q9Y3Z3_C522 [5]: 0.8
isoTOP-ABPP ratio O75362_C286 [6]; 231: 0.9
isoTOP-ABPP ratio O75362_C286 ([6]; ramos): 0.9
isoTOP-ABPP ratio, O75874_C269 [7]: 2.7
isoTOP-ABPP ratio, P09211_C48 [8]; 231: 1.5
isoTOP-ABPP ratio, P09211_C48 ([8]; ramos): 1.2
isoTOP-ABPP ratio, O00170_C122 [9]: 0.9
SMILES: O=C(CCl)NCCc1c[nH]c2ccccc12 [compound 13]

SMILES: O=C(CCl)N1CCC(C(O)(c2ccccc2)c2ccccc2)CC1 [compound 20]
isoTOP-ABPP ratio (reactivity profile), Q16763_C118 ([1]; 500 μm in-vitro ramos): 2.9
isoTOP-ABPP ratio (reactivity profile), P63244_C182 ([2]; 500 μm in-vitro ramos): 1.1
isoTOP-ABPP ratio (reactivity profile), P63244_C182 ([2]; 500 μm in-vitro ramos_231): 1.4
isoTOP-ABPP ratio (reactivity profile), P15374_C95 ([3]; 500 μm in-vitro ramos): 0.9
isoTOP-ABPP ratio (reactivity profile), P15374_C95 ([3]; 500 μm in-vitro ramos_231): 1.0
isoTOP-ABPP ratio (reactivity profile), Q9UPT9_C171 ([4]; 500 μm in-vitro ramos): 20.0
isoTOP-ABPP ratio (reactivity profile), Q9Y3Z3_C522 ([5]; 500 μm in-vitro ramos): 1.3
isoTOP-ABPP ratio (reactivity profile), Q9Y3Z3_C522 ([5]; 500 μm in-vitro ramos_231): 2.1
isoTOP-ABPP ratio (reactivity profile), O75362_C286 ([6]; 500 μm in-vitro ramos_231): 1.3
R value (DMSO/fragment) ([7]; 25 μM, endogenous IDH1, MDA-MB-231 proteome): 20
isoTOP-ABPP ratio (reactivity profile), O75874_C269 ([7]; 500 μm in-vitro ramos): 0.6
isoTOP-ABPP ratio (reactivity profile), P09211_C48 ([8]; 500 μm in-vitro ramos): 1.1
isoTOP-ABPP ratio (reactivity profile), P09211_C48 ([8]; 500 μm in-vitro ramos_231): 2.5
isoTOP-ABPP ratio (reactivity profile), O00170_C122 ([9]; 500 μm in-vitro ramos): 2.2
